{
  "source": "patent US5599789A",
  "about": "“Method for the treatment of tumours and sarcomas” (Amrad Corporation Limited, priority 1991, dated 1997)",
  "key": {"[1]": {"test_system": "Ewing's Sarcoma cell line Al-1", "test": "Colony formation in semi-solid agar cultures, Al-1 cells", "assay_type": "cell-based, human", "settings": "day 18", "description": "(§1) Tumour cells obtained from biopsy and bone marrow specimens from patients with Ewing's Sarcoma were used in these studies. Approval for this project has been obtained from the Ethics Committee of the Royal Children's Hospital.\n(§2) Single cell suspensions of tumour cells were obtained by mechanical disruption with an 18G or 21G needle or by pipetting, followed by incubation with dispase II (Boehringer) at a concentration of 1.2 units per ml for 10 minutes at 37° C. Prior to the addition to agar-medium the cells were vortexed gently to prevent clumping.\n(§3) Clonal cell lines were grown in Iscove's Modified Dulbecco's Medium (IMDM) supplemented with 10% v/v foetal calf serum (FCS; CSL Limited, Melbourne, Australia) and were passaged either weekly or twice weekly. The characteristics of the Ewing Sarcoma cell lines used herein as described below:\nCell lines derived from the above primary cell lines (Al and Cu) are identified by an Arabic numeral (e.g. Al-1, Al-5, Al-8 or Cu-1).\n(§4) The tumour cells were immobilised in 0.3% w/v agar containing Iscove's Modified Dulbecco's Medium (IMDM) and 10% v/v FCS. […] Cultures were scored for the presence of colonies (>40 cells) or clusters (<40 cells). The number of cells plated per culture ranged from 500 to 10,000 per ml. Colonies were counted on an Olympus dissecting microscope.\n(§5) IL-1, IL-3, IL-4, IL-6, M-CSF, G-CSF, GM-CSF, Stem Cell Factor (SCF), TNFα, TGFα, TGFβ, EGF, aFGF, bFGF, NGF, IGF I, IGF II, PDGF and IFN-γ.\n(§6) The recombinant human leukaemia inhibitory factor (LIF) was obtained from AMRAD Corporation Limited, Melbourne, Australia."}, "[2]": {"test_system": "LIF receptors on different Ewing sarcoma cells", "test": "125I-hLIF binding, second independent Scatchard analysis", "parameters": "species or system human", "settings": "read-out: Equilibrium dissociation constant", "description": "(§7) A cloned Ewing sarcoma cell line Al5 (7×10^6 per point) in 100 μl of RPMI-medium containing 10 mM Hepes buffer pH 7.4 and 10% v/v foetal calf serum were incubated with increasing concentrations of ^125 I-hLIF (E. coli derived) (5000-800,000 cpm: 100,000 cpm/ng) with or without 5 μg/ml of unlabelled hLIF for 3 hrs on ice. The incubation mixture was then layered over 180 μl cold foetal calf serum, centrifuged at top speed in an Eppendoff microfuge for 10 sec and the tip of the tube containing the cell pellet cut with a scalpel blade and removed for counting in a gamma counter."}, "[3]": {"test_system": "LIF receptors on Ewing sarcoma cell line Al5", "test": "125I-hLIF binding, Scatchard analysis, cloned line Al5", "parameters": "species or system human", "settings": "Al5 cells, 3 hrs on ice, Scatchard slope, read-out: Equilibrium dissociation constant", "description": "as §7"}, "[4]": {"test_system": "Ewing's Sarcoma cell line Al (uncloned)", "test": "Colony formation in semi-solid agar cultures, Al (uncloned) cells", "assay_type": "cell-based, human", "settings": "Al(uncloned), 5,000 cells, day 18", "description": "as §1, §2, §3, §4, §5, §6"}, "Ewing's Sarcoma cells": {"test_system": "Ewing's Sarcoma cells", "test": "Colony formation in agar cultures, a number of different Ewing's cell lines (summary statements)", "assay_type": "cell-based, human", "source_text": "as §4"}, "[5]": {"test_system": "Ewing's sarcoma cells (cell line A1-5) xenograft", "test": "Ewing's tumour growth in SCID mice (subcutaneous xenograft)", "assay_type": "in vivo", "settings": "for Histology of subcutaneous tumours / Mitotic figures in tumours: hLIF 20 μg/day, 18 days; for Histology of subcutaneous tumours: Haematoxylin and Eosin; for Mitotic figures in tumours: histology", "source_text": "Scid mice were obtained from the Animal Resource Centre, Willetton, Western Austarlia. All mice were aged 5-8 weeks, and were the same sex (male). Severe immunodeficiency (scid) is an autosomal recessive mutation that occurred spontaneously in the CB 17 (CB-IgH-1^b (N17F34)) congenic strain (16). In this congenic strain, the inbred BALB/c strain carried the immunoglobulin heavy-chain allele (Igh-I^b) of the C57BL/Ka strain. The SCID locus has been mapped to the centromeric end of chromosome 16 (16). These mice have defective T and B cell immunity, thus allowing for engraftment of many foreign cells. The mice were maintained in a laminar flow unit. In order to reduce the mortality from infection, the mice were kept in previously autoclaved cages, and autoclaved food and acidified water was used.\nRecombinant human LIF (hLIF) derived from E. coli (Lot 122, AMRAD Corporation Limited) was used. Recombinant mouse LIF (Lot 308, AMRAD Corporation Limited) and PBS/1% w/v BSA were used as controls for the in vivo injections.\n5-8×10^6 cloned Ewing's sarcoma cells (cell line A1-5), were injected subcutaneously into SCID mice. Tumours were scored after about 3 weeks in almost all mice at the injection site.\nTo examine the effect of heterologous and homologous LIF relative to the mammal being treated, a double blind controlled study was performed using tumour bearing SCID mice that were injected with hLIF (20 μg per mouse), mouse LIF (100 ng per mouse), or PBS/1% w/v BSA. The effective amount of hLIF was required to be higher than mLIF due to the presence of high circulating levels of a hLIF binding protein in mice (17). Eight mice were injected in each group with the majority of mice in the hLIF group surviving over 2 weeks (range 15-31 days). Tumour size was assessed using calibrated calibers, with measurements in the depth, length and width of the tumours. […] The trend for smaller tumours in hLIF treated mice was evident prior to the wasting syndrome. Although not wishing to limit the present invention to any one hypothesis as to mode of action, this phenomenon may be a manifestation of LIF toxicity in mice. In most cases, this trend was noticeable within 7 days after hLIF injections.\nHistological examination of the subcutaneous tumours was performed on all mice, as was a full necropsy."}, "[6]": {"test_system": "Ewing's sarcoma cells from cell line Al-5", "test": "Clonogenicity in agar after LIF pretreatment in suspension culture", "assay_type": "cell-based, human", "description": "Ewing's sarcoma cells from cell line Al-5 in suspension cultures were incubated for seven days in the presence or absence of 100 ng/ml LIF prior to inoculation of replicate agar plates with 5×10^3 cells per ml which were then incubated for a further 18 days before colonies were scored. In all cases, the frequency of colonies obtained from LIF-pretreated cells was 35-55% lower compared to control cells."}, "[7]": {"settings": "hLIF 20 μg per mouse daily s.c."}},
  "note": "pKd: −log10 of the molar value. “Also recorded” adds a separate entry of the source.",
  "data": [
    {"substance": "LIF: recombinant human leukaemia inhibitory factor (E. coli derived) from AMRAD Corporation Limited", "values": [
      {"measurement": "Colonies/Cultures", "setting": "[1]; Al-1, 1,000 cells, stimulus 0.01 ng", "value": 50},
      {"measurement": "Colonies/Cultures", "setting": "[1]; Al-1, 1,000 cells, stimulus 0.1 ng", "value": 39},
      {"measurement": "Colonies/Cultures", "setting": "[1]; Al-1, 1,000 cells, stimulus 1 ng", "value": 23},
      {"measurement": "Colonies/Cultures", "setting": "[1]; Al-1, 1,000 cells, stimulus 10 ng", "value": 24},
      {"measurement": "Colonies/Cultures", "setting": "[1]; Al-1, 1,000 cells, stimulus 100 ng, mean of duplicate colony counts", "value": 32},
      {"measurement": "Colonies/Cultures", "setting": "[1]; Al-1, 10,000 cells, stimulus 0.01 ng", "value": 695},
      {"measurement": "Colonies/Cultures", "setting": "[1]; Al-1, 10,000 cells, stimulus 0.1 ng", "value": 305},
      {"measurement": "Colonies/Cultures", "setting": "[1]; Al-1, 10,000 cells, stimulus 1 ng", "value": 129},
      {"measurement": "Colonies/Cultures", "setting": "[1]; Al-1, 10,000 cells, stimulus 10 ng", "value": 17},
      {"measurement": "Colonies/Cultures", "setting": "[1]; Al-1, 10,000 cells, stimulus 100 ng, mean of duplicate colony counts", "value": 18},
      {"measurement": "pKd", "setting": "[2]", "value": 9.89},
      {"measurement": "pKd", "setting": "[3]", "value": 10.05},
      {"measurement": "Colonies/Cultures", "setting": "[4]; stimulus 0.01 ng", "value": 222},
      {"measurement": "Colonies/Cultures", "setting": "[4]; stimulus 0.1 ng", "value": 205},
      {"measurement": "Colonies/Cultures", "setting": "[4]; stimulus 1 ng", "value": 160},
      {"measurement": "Colonies/Cultures", "setting": "[4]; stimulus 10 ng", "value": 10},
      {"measurement": "Colonies/Cultures", "setting": "[4]; stimulus 100 ng, mean of duplicate colony counts", "value": 8},
      {"measurement": "Effect on colony counts", "setting": "Ewing's Sarcoma cells; between 0.1 and 100 ng LIF per culture, agar cultures, different Ewing's cell lines", "value": "able to significantly reduce colony counts"},
      {"measurement": "Magnitude of colony reduction relative to other growth factors tested", "setting": "Ewing's Sarcoma cells; culture of Ewing's Sarcoma cells", "value": "greater than those induced by other growth factors tested"},
      {"measurement": "Number of colonies compared to untreated controls", "setting": "Ewing's Sarcoma cells; culture of Ewing's Sarcoma cells, dose-dependent", "value": "significantly reduces the number of colonies"},
      {"measurement": "Time until trend for smaller tumours was noticeable", "setting": "[5]; after hLIF injections, 20 μg per mouse, in most cases", "value": "≤ 7", "unit": "days"},
      {"measurement": "Survival of the majority of mice", "setting": "[5]; [7]", "value": "over 2 weeks"},
      {"measurement": "Tumour size compared to PBS controls", "setting": "[5]; [7]", "value": "significantly reduced in size; also recorded: significantly smaller"},
      {"measurement": "Survival range of tumour bearing mice", "setting": "[5]; hLIF 20 μg per mouse daily s.c., eight mice", "value": "15 to 31", "unit": "days"},
      {"measurement": "Histology of subcutaneous tumours", "setting": "[5]", "value": "mainly composed of necrotic areas with only a small percentage of the tumour being made up of viable cells"},
      {"measurement": "Histology of subcutaneous tumours", "setting": "[5]; listed as human LIF", "value": "regressive, nectrotic tumour cells; also recorded: necrotic, regressive tumour cells"},
      {"measurement": "Mitotic figures in tumours", "setting": "[5]", "value": "almost no mitotic figures"},
      {"measurement": "Mitotic figures in tumours", "setting": "[5]; listed as human LIF", "value": "lack of mitotic figures"},
      {"measurement": "Viable areas of tumours", "setting": "[5]; hLIF treated, microscopic examination", "value": "< 20", "unit": "%"},
      {"measurement": "Frequency of colonies from LIF-pretreated cells, lower compared to control cells", "setting": "[6]; Al-5, 100 ng/ml LIF for seven days in suspension, then agar 5×10^3 cells per ml, 18 days, three experiments", "value": "35-55%"},
      {"measurement": "Proportion of large colonies in LIF stimulated agar cultures", "setting": "[6]; pretreatment with LIF in suspension cultures for 7-14 days", "value": "further reduced"}
    ]}
  ]
}
